Results from patent publication US20230019491A1, “PYRIMIDINE TBK/IKKe INHIBITOR COMPOUNDS AND USES THEREOF” (Merck Patent GmbH, priority 2017, published 2023).
Structures can show the parent of a compound that is named as a salt.

How the values were obtained:
TBK1 = molecular target: T1, TBK1 (Homo sapiens, UniProt Q9UHD2); experiment: TBK biochemical assay; settings: 10 point 1:4 dose response, 30 uM top concentration, 90 min at 25° C., LabChip EZ Reader II; read-out: TBK1_IC50
T1 sequence (Q9UHD2 1-729): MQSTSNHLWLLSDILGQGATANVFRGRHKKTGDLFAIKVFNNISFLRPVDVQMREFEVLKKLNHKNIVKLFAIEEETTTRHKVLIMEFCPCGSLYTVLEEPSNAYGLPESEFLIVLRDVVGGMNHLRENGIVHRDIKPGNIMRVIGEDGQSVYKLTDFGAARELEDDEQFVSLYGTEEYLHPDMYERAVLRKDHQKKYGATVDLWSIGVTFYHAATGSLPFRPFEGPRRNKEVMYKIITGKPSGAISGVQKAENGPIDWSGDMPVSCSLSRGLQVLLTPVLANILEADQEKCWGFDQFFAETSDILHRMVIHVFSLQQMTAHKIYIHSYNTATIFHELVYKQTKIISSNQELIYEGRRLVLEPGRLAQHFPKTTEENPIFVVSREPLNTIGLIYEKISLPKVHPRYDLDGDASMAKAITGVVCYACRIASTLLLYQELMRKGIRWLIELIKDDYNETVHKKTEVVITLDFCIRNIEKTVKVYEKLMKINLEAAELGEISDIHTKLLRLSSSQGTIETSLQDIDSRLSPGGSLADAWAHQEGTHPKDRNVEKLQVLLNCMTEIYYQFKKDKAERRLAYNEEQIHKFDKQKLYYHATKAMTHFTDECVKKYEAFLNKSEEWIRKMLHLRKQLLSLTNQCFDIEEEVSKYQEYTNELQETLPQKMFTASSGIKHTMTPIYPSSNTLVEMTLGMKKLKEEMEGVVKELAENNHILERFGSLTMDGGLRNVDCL
Method in brief: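 Substrate and product were separated and quantified by microfluidic mobility-shift read (LabChip). 10 uM staurosporine served as the full-inhibition control, and the reference compound was tested from 1 uM final.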

IKKε = molecular target: T2, IKKε (Homo sapiens, UniProt Q14164); experiment: IKKε biochemical assay; settings: 10 point 1:4 dose response, 30 uM top concentration, 90 min at 25° C., LabChip EZ Reader II; read-out: IKKε_IC50
T2 sequence (Q14164 1-716): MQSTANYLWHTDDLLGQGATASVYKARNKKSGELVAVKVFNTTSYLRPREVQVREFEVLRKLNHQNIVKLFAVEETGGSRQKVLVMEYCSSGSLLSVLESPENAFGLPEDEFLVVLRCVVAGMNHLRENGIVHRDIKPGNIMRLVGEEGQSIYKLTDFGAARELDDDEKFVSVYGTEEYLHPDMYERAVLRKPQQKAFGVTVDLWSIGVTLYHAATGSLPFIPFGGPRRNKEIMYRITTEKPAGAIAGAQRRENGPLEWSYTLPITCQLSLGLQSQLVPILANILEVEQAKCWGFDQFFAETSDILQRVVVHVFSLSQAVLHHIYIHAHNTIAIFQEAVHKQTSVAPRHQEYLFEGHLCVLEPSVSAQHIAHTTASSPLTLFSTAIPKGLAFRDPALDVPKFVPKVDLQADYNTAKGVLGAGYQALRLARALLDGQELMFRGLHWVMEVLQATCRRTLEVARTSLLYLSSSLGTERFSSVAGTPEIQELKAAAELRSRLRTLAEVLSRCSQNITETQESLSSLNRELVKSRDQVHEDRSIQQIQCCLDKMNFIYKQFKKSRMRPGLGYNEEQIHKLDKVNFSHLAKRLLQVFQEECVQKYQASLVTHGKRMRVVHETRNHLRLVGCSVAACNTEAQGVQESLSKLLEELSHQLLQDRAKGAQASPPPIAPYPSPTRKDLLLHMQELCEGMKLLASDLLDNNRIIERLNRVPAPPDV
Method in brief: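 Compounds in 1% DMSO final were incubated with IKKε enzyme and substrate at 25° C. for 90 min, then stopped. Substrate and product peaks were resolved by LabChip EZ Reader II mobility-shift read-out. Staurosporine at 10 uM final served as the full-inhibition control.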

Compound | IC50 (TBK1) | IC50 (IKKε)
tert-butyl 4-[2-cyano-5-methyl-4-[2-([4-[4-(oxetan-3-yl)piperazin-1-yl]phenyl]amino)pyrimidin-4-yl]phenoxy]-3,3-difluoropiperidine-1-carboxylate [Example 308] | < 100 nM | < 100 nM
COc1nc(Nc2nccc(-c3ccc(N4CC5(CCN(C(=O)[C@H](C)O)CC5)C4)c(C#N)c3)n2)ccc1N1CCN(C2COC2)CC1 [Example 314, 2-[7-((S)-2-Hydroxy-propionyl)-2,7-diaza-spiro[3.5]non-2-yl]-5-{2-[6-methoxy-5-(4-oxetan-3-yl-piperazin-1-yl)-pyridin-2-ylamino]-pyrimidin-4-yl}-benzonitrile] | < 100 nM | < 100 nM
COc1nc(Nc2nccc(-c3ccc(OC4CCOCC4)c(C#N)c3)n2)ccc1N(C)CC(=O)N(C)C [Example 35, 2-[[6-([4-[3-cyano-4-(oxan-4-yloxy)phenyl]pyrimidin-2-yl]amino)-2-methoxypyridin-3-yl](methyl)amino]-N,N-dimethylacetamide hydrochloride] | < 100 nM | < 100 nM
N#Cc1cc(-c2ccnc(Nc3ccc(N4CCN(C5COC5)CC4)cc3)n2)ccc1OC1COC1 [Example 159, 5-[2-([4-[4-(oxetan-3-yl)piperazin-1-yl]phenyl]amino)pyrimidin-4-yl]-2-(oxetan-3-yloxy)benzonitrile] | < 100 nM | < 100 nM
COc1nc(Nc2nccc(-c3ccc(OC4CCOCC4)c(C#N)c3)n2)ccc1C(=O)NCCO [Example 2, 6-([4-[3-cyano-4-(oxan-4-yloxy)phenyl]pyrimidin-2-yl]amino)-N-(2-hydroxyethyl)-2-methoxypyridine-3-carboxamide] | < 100 nM | < 100 nM
COc1nc(Nc2nccc(-c3ccc(NC4CCOCC4)c(C#N)n3)n2)ccc1C(=O)N(C)C [Example 64, 6-[(4-[6-cyano-5-[(oxan-4-yl)amino]pyridin-2-yl]pyrimidin-2-yl)amino]-2-methoxy-N,N-dimethylpyridine-3-carboxamide] | < 100 nM | < 100 nM
COc1cc(Nc2nccc(-c3ccc(OC4CCOCC4)c(C#N)n3)n2)ncc1C(=O)N(C)C [Example 24, 6-([4-[6-cyano-5-(oxan-4-yloxy)pyridin-2-yl]pyrimidin-2-yl]amino)-4-methoxy-N,N-dimethylpyridine-3-carboxamide] | 100 to 1000 nM | 100 to 1000 nM
COc1nc(Nc2nccc(-c3ccc(OC4CCOCC4)c(C#N)c3)n2)ccc1C(=O)N[C@@H]1[C@@H]2C[C@H]1CN(C)C2 [Example 20, 6-([4-[3-cyano-4-(oxan-4-yloxy)phenyl]pyrimidin-2-yl]amino)-2-methoxy-N-[(1R,5S,6S)-3-methyl-3-azabicyclo[3.1.1]heptan-6-yl]pyridine-3-carboxamide] | < 100 nM | < 100 nM
COc1nc(Nc2nccc(-c3ccc(OC4CCN(C(=O)[C@@H](C)CO)CC4(F)F)c(C#N)c3)n2)ccc1N1CCN(C2COC2)CC1 (stereo partly drawn) [Example 252, 2-[3,3-Difluoro-1-((S)-3-hydroxy-2-methyl-propionyl)-piperidin-4-yloxy]-5-{2-[6-methoxy-5-(4-oxetan-3-yl-piperazin-1-yl)-pyridin-2-ylamino]-pyrimidin-4-yl}-benzonitrile] | < 100 nM | < 100 nM
CN1CCN(c2ccc(Nc3nccc(-c4ccc(OC5CCOCC5)c(C#N)c4)n3)cc2)CC1 [Example 163, 5-{2-[4-(4-Methyl-piperazin-1-yl)-phenylamino]-pyrimidin-4-yl}-2-(tetrahydro-pyran-4-yloxy)-benzonitrile] | < 100 nM | < 100 nM

Now from value to compound:

IC50 (TBK1) | IC50 (IKKε) | Compound
< 100 nM | < 100 nM | N#Cc1cc(-c2ccnc(Nc3ccc(C4CCN(C5COC5)CC4)cc3)n2)ccc1OC1CCNCC1(F)F (stereo not shown) [Example 150, 2-(3,3-Difluoro-piperidin-4-yloxy)-5-{2-[4-(1-oxetan-3-yl-piperidin-4-yl)-phenylamino]-pyrimidin-4-yl}-benzonitrile hydrochloride]
< 100 nM | < 100 nM | COc1nc(Nc2nccc(-c3ccc(OC4CCOCC4F)c(C#N)c3)n2)ccc1N1CCN(C2COC2)CC1 (stereo not shown) [Example 170, 2-(3-Fluoro-tetrahydro-pyran-4-yloxy)-5-{2-[6-methoxy-5-(4-oxetan-3-yl-piperazin-1-yl)-pyridin-2-ylamino]-pyrimidin-4-yl}-benzonitrile]
< 100 nM | < 100 nM | COc1nc(Nc2nccc(-c3ccc(O[C@H]4CCN(C(=O)[C@H](C)O)C[C@H]4F)c(C#N)c3)n2)ccc1N1CCN(C2COC2)CC1 [Example 199, 2-[[(3R,4S)-3-fluoro-1-[(2S)-2-hydroxypropanoyl]piperidin-4-yl]oxy]-5-[2-([6-methoxy-5-[4-(oxetan-3-yl)piperazin-1-yl]pyridin-2-yl]amino)pyrimidin-4-yl]benzonitrile]
< 100 nM | < 100 nM | C[C@H](O)C(=O)N1CC(COc2ccc(-c3ccnc(Nc4ccc(N5CCN(C6COC6)CC5)cc4)n3)cc2C#N)C1 [Example 277, 2-([1-[(2S)-2-hydroxypropanoyl]azetidin-3-yl]methoxy)-5-[2-([4-[4-(oxetan-3-yl)piperazin-1-yl]phenyl]amino)pyrimidin-4-yl]benzonitrile]
< 100 nM | < 100 nM | COc1nc(Nc2nccc(-c3ccc(OC4CCOCC4)c(C#N)c3)n2)ccc1C(=O)N1CCC(C(=O)O)CC1 [Example 13]
< 100 nM | < 100 nM | COc1nc(Nc2nccc(-c3ccc(OC4CCOCC4)c(C#N)c3)n2)ccc1N1C[C@@H](C)O[C@@H](C)C1 [Example 37, 5-[2-([5-[cis-2,6-dimethylmorpholin-4-yl]-6-methoxypyridin-2-yl]amino)pyrimidin-4-yl]-2-(oxan-4-yloxy)benzonitrile]
< 100 nM | < 100 nM | COc1nc(C(=O)N(C)C)ccc1Nc1nccc(-c2ccc(OC3CCOCC3)c(C#N)c2)n1 [Example 48, 5-([4-[3-cyano-4-(oxan-4-yloxy)phenyl]pyrimidin-2-yl]amino)-6-methoxy-N,N-dimethylpyridine-2-carboxamide]
< 100 nM | < 100 nM | COc1nc(Nc2nccc(-c3ccc(OC4CCN(C(=O)c5n[nH]c(C)n5)CC4)c(C#N)c3)n2)ccc1C(=O)N(C)C [Example 78, 6-([4-[3-cyano-4-([1-[(5-methyl-1H-1,2,4-triazol-3-yl)carbonyl]piperidin-4-yl]oxy)phenyl]pyrimidin-2-yl]amino)-2-methoxy-N,N-dimethylpyridine-3-carboxamide]
< 100 nM | < 100 nM | C[C@@H](O)C(=O)N1CCC(Oc2ccc(-c3ccnc(Nc4cccc(C5CCN(C6COC6)CC5)c4)n3)cc2C#N)C(F)(F)C1 (stereo partly drawn) [Example 225, 2-[3,3-Difluoro-1-((R)-2-hydroxy-propionyl)-piperidin-4-yloxy]-5-{2-[3-(1-oxetan-3-yl-piperidin-4-yl)-phenylamino]-pyrimidin-4-yl}-benzonitrile]
< 100 nM | < 100 nM | COc1nc(Nc2ncc(C)c(-c3ccc(O[C@H]4CCN(C(=O)[C@H](C)O)CC4(F)F)c(C#N)c3)n2)ccc1N1CCN(C2COC2)CC1 [Example 284, 2-[[(4S)-3,3-difluoro-1-[(2S)-2-hydroxypropanoyl]piperidin-4-yl]oxy]-5-[2-([6-methoxy-5-[4-(oxetan-3-yl)piperazin-1-yl]pyridin-2-yl]amino)-5-methylpyrimidin-4-yl]benzonitrile]
